Assay results reported in US11779573B2, “Crystalline forms of compounds for preventing or treating sensory hair cell death” (University of Washington, priority 2017, dated 2023).

Legend:
Type in all cases: physicochemical
[1] = Dynamic vapor sorption (DVS), hygroscopicity and XRPD before/after; conditions: for hygroscopicity / crystallinity / polymorphic form (XRPD) after DVS: mesylate; for crystallinity / polymorphic form (XRPD) after DVS: XRPD before and after DVS cycles of relative humidity
Method: DVS studies were performed using a Surface Measurement Systems Ltd. DVS-1 No Video. The sample, typically 20-30 mg, was loaded into a balance pan and equilibrated at 0% relative humidity (RH). After the material was dried, the RH was increased at 10% per step for 1 hour per increment, ending at 95% RH. After completion of the sorption cycle, the sample was dried using the same method, and the cycle was repeated. The software used for data collection was DVSWin v3.01 No Video. Data analysis was performed using DVS Standard Analysis Suite v6.3.0 (Standard).

[2] = Solubility of Compound 1 in water, shake-flask method; conditions: thermodynamic from solid, visually determined at 20° C., water added stepwise to 10 mg
Method: Water was added stepwise to 10 mg of Compound 1, with 15 minutes in between additions, until complete dissolution was obtained.

[3] = Solubility in water of scaled-up salts of Compound B (salt screen)
Method: These slurry experiments were also performed at gram scale with 25 mg/mL Compound B in 20 mL ethyl acetate with 1 equivalent acid.

Structure (SMILES): CN1[C@H]2CC[C@@H]1c1c(sc(NC(=O)Nc3ccc(Cl)cc3)c1C(N)=O)C2.CS(=O)(=O)O [Compound 1, (4R,7S)-2-(3-(4-chlorophenyl)ureido)-9-methyl-5,6,7,8-tetrahydro-4H-4,7-epiminocyclohepta[b]thiophene-3-carboxamide mesylate]
- total mass uptake in the first sorption cycle ([1]; DVS, 0% to 95% RH, first sorption cycle): 1.8%
- total mass uptake in the second cycle ([1]; DVS, 0% to 95% RH, second cycle): 1.6%
- hygroscopicity ([1]; DVS, listed as mesylate salt): slightly hygroscopic at high humidity levels
- hygroscopicity ([1]; DVS): slightly hygroscopic
- crystallinity / polymorphic form (XRPD) after DVS ([1]; listed as mesylate salt): remained unchanged
- crystallinity / polymorphic form (XRPD) after DVS [1]: unchanged
- solubility at 15 min [2]: > 97 mg/mL
- solubility [3]: 97 to 970 mg/mL
